How the values were obtained:
mossy fiber synapse = test: Effect on synaptic transmission: weak HFS-induced LTP, hippocampal slices (MEA); type: cell-based, rat
Source text: Effect of Test Compounds on Synaptic Transmission Critical Reagents
Sucrose dissection buffer contained (in mM) sucrose (150), NaCl (40), KCl (4), NaH2PO4.H2O (0.3), MgCl.6H2O (7), NaHCO3 (26), CaCl2.2H2O (0.5), D-glucose (10), equilibrated with 95% O2 and 5% CO2 gas mixture. Artificial cerebrospinal fluid (ACSF) used during equilibration and recording contained (in mM): NaCl (124), KCl (2.7), NaH2PO4.H2O (1.25), MgSO4.7H2O (1.3), NaHCO3 (26), CaCl2.2H2O (2), D-glucose (10), Ascorbic acid (2), equilibrated with 95% O2 and 5% CO2 gas mixture. CNQX and Kynurenic acid were prepared in ACSF at a 50 μM and 1 mM concentration respectively. […] All reagents were from Sigma-Aldrich, unless otherwise indicated. […]
All data were recorded with a MEA set-up commercially available from MultiChannel Systems MCS GmbH (Reutlingen, Germany) composed of a 4-channel stimulus generator and a 60-channels amplifier head-stage connected to a 60-channels A/D card. […]
Extracellular field potential recordings. […] All data were recorded with a MEA set-up commercially available from MultiChannel Systems MCS GmbH (Reutlingen, Germany). Two adjacent electrodes of the chip were selected to stimulate the mossy fibres in the hilar region of the dentate gyrus and the fEPSP was recorded the terminal zone area of the CA3 region of the hippocampus. […]

hPDE10A2 = hPDE10A2 (Homo sapiens, UniProt Q9Y233); test: biochemical
hPDE3B = test: In vitro assay PDE3 (SPA, 3H-cAMP); type: biochemical, human
Solubility (as reported) = type: physicochemical; conditions: in words
hPDE2A = target: T1, hPDE2A (Homo sapiens, UniProt O00408); test: In vitro assay PDE2A (SPA, 3H-cGMP); type: biochemical
T1 construct: made in house; host or cells: Sf9 insect cells (baculovirus)
Summary of the method: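 Sf9-expressed, Ni-sepharose-purified enzyme in 50 mM Tris pH 7.8, 8.3 mM MgCl2, 1.7 mM EGTA with 10 μM cGMP plus 0.01 μCi 3H-cGMP (final), 1% DMSO. Reaction 45 min at room temperature; SPA bead radioactivity counted as cpm, blanks without enzyme, controls with DMSO instead of compound.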

T1 sequence (O00408 whole entry): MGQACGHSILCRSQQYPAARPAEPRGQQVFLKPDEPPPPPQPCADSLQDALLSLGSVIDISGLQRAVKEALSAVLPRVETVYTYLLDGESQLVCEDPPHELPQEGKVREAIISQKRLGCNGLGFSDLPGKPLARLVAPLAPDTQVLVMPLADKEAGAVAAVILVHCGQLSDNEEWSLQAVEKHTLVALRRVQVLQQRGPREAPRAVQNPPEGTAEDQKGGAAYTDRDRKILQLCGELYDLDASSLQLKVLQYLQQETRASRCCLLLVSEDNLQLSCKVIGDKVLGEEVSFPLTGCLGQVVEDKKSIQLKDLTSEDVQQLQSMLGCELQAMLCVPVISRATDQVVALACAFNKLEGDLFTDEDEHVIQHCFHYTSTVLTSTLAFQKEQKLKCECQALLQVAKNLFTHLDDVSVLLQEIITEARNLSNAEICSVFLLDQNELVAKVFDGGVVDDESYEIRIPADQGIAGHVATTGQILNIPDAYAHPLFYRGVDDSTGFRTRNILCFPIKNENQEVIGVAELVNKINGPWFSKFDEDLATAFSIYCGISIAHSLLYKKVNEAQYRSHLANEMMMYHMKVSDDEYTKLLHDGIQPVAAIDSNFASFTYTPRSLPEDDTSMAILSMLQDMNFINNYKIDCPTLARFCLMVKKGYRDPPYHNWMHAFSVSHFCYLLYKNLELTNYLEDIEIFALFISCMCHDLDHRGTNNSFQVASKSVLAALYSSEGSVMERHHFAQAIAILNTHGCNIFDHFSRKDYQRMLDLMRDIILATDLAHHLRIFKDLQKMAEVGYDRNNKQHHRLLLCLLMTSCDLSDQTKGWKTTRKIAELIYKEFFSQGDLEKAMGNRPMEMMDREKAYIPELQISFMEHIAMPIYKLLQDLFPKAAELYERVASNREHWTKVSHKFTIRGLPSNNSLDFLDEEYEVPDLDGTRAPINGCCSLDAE
hPDE10A2, sequence (Q9Y233 267-1055): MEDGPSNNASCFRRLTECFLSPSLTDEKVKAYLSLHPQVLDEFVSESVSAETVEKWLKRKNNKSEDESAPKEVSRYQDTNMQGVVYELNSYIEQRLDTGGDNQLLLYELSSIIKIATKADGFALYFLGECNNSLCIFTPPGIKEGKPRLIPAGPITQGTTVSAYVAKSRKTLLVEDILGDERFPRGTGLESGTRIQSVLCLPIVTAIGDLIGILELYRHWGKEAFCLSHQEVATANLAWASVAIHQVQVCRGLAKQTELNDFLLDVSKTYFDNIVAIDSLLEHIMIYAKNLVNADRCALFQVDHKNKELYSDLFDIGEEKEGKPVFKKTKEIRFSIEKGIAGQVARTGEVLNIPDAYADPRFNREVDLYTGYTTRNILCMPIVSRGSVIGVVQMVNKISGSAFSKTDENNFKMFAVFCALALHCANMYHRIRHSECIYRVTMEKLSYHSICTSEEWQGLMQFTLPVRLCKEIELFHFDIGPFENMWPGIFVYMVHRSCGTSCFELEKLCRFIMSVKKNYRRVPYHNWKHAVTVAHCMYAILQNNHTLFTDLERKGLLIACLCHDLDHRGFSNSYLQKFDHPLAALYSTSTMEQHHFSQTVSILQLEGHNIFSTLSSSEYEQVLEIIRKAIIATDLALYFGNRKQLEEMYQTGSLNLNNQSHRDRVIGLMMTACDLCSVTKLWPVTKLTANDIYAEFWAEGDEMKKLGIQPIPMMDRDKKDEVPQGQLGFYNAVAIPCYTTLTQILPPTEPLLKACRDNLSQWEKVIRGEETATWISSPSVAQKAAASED

C[C@@H]1CCN(c2nccc3ccc(Br)cc23)C[C@H]1c1cc(C(F)F)nc2ncnn12 [Compound 1]
penetration to the tissue (mossy fiber synapse; hippocampal slice, reported, in words): poor
effect on weak HFS-induction of long term potentiation (LTP) (mossy fiber synapse; mossy fiber synapse, hippocampal slices of male Sprague-Dawley rats, FIG. 1): did not facilitate the induction of LTP
IC50 (hPDE10A2; 60 nM cAMP substrate, read-out: hPDE10A2 pIC50 (converted)): 550 nM
Emax (hPDE10A2; read-out: hPDE10A2 Emax): 98%
hPDE3B Emax (hPDE3B): 73
hPDE3B pIC50 (hPDE3B; 0.4 μM cAMP substrate): 5.25
melting point: 129.91 °C
solubility (Solubility (as reported)): poor
IC50 (hPDE2A; 10 μM cGMP substrate, read-out: hPDE2A pIC50 (converted)): 2.24 nM
Emax (hPDE2A; read-out: hPDE2A Emax): 96%

Source: patent publication US11053248B2, “[1,2,4]triazolo[1,5-a]pyrimidine compounds as PDE2 inhibitors” (Janssen Pharmaceutica NV, priority 2016, dated 2021)
